From patent publication US11896604B2, “Composition comprising HMSs/HMOs and use thereof” (Glycom A/S, priority 2014, dated 2024)

What was measured:
[1] = system: human LS174T cell culture model of goblet cells; assay: Mucosal barrier function: goblet cell gene expression by quantitative RT-PCR; format: cell-based; conditions: 5 mg HMO/ml, compared to control cultures
Experimental: 2′-FL and LNnT are tested with respect to their ability to induce MUC2, TFF3, EIMβ, CHST5, and GAL3ST2 expression in the human LS174T cell culture model of goblet cells. The human LS174T cell line is obtained from the American Type Culture Collection (ATCC). LS174T cells are maintained in minimum essential medium (MEM) supplemented according to instructions at 37° C. in 5% CO2. 2′-FL and LNnT are dissolved in cell culture grade water to the required concentration. The LS174T cells are treated with the HMO solution containing 0 or 5 mg HMO/ml. The LS174T cells are collected and suspended in Trizol reagent and total RNA is isolated using an RNA analysis kit (Qiagen) according to the manufacturer's instructions and the RNA isolates are quantified using Nanodrop analysis (Thermo Fisher Scientific). RNA isolates are reverse transcribed using a high capacity cDNA Reverse Transcription Kit (Applied Biosystems) to create cDNA, which is then used to assess gene expression via quantitative RT-PCR. For the quantitative RT-PCR, specific TaqMAN gene expression assays are obtained from Applied Biosystems, which include expression assays for MUC2, TFF3, CHST5 and GAL3ST2. Quantitative real-time PCR is performed using TaqMAN PCR Master Mix (Applied Biosystems). Reactions are run in duplicates in a 384-well plate using an Applied Biosystems 7900HT Fast Real-Time PCR System. The results are analysed using SDS 2.3 software and calculated by delta delta Ct method. All samples are normalized to Gus-β expression and fold induction is calculated over untreated controls. Gene expression is expressed as fold increase compared to HMO-free control cells. The experiment is repeated three times.

[2] = system: IBS-D patients; conditions: cited from earlier work

Molecule | expression of the MUC2 gene [1] | expression of the TFF3 gene [1] | induction of CHST5 [1] | induction of GAL3 ST2 [1] | bowel movement [2]
2′-fucosyllactose [2′-FL] | increases | increases | minimal induction | lack of induction | –
CC(=O)N[C@H]1[C@H](O[C@H]2[C@@H](O)[C@@H](CO)O[C@@H](O[C@H]3[C@H](O)[C@@H](O)C(O)O[C@@H]3CO)[C@@H]2O)O[C@H](CO)[C@@H](O[C@@H]2O[C@H](CO)[C@H](O)[C@H](O)[C@H]2O)[C@@H]1O (mixture of isomers) [LNnT, lacto-N-neotetraose] | increases | increases | minimal induction | lack of induction | –
CO[C@H]1/C=C/O[C@@]2(C)Oc3c(C)c(O)c4c(O)c(c5c(nc6cc(C)ccn65)c4c3C2=O)NC(=O)/C(C)=C\C=C\[C@H](C)[C@H](O)[C@@H](C)[C@@H](O)[C@@H](C)[C@H](OC(C)=O)[C@@H]1C [rifaximin] | – | – | – | – | reduce
